Here are results for five molecules from patent US6218430A, “Vitamin D3 mimics” (Ligand Pharmaceuticals Incorporated, priority 1998, dated 2001).

SMILES strings stand for the structures. Where two headings read alike, the source gives them in different places. Some results are limits rather than exact numbers.

In data set [1] the test system is LNCaP prostate cancer cells. Kind of data set: Prostate cancer cell growth inhibition (BrdU). The note with it: Homo sapiens, 96 h, BrdU incorporation, 4-day assay. The format is cell-based. How it is done:
(§1) Cancer cell growth inhibition and analysis. SK-BR-3 human breast cancer cells (ATCC) and LNCaP human prostate cancer cells (ATCC) were plated in 96-well, flat-bottomed microtiter plates (CoStar) with 50 μL serum-containing media/well. […] Cell plating numbers (cells/well) were as follows: SK-BR-3, 3000 (3-day assays); LNCAP, 1000 (4-day assays). Cell plating number was determined by growth rate of each cell line and duration of the assay. […] Cells were allowed to adhere for 24 h prior to compound addition as follows:
(§2) Ten-fold serial dilutions were performed with changing of pipette tips between each dilution. Diluted compounds were then added to the cells (50 μL/well) to final concentrations of 1×10^-5 -1×10^-11 M (1% ethanol) in triplicate. […] BrdU (5-bromo-2'-deoxyuridine) incorporation was analyzed as a measure of DNA replication (Cell Proliferation ELISA kit, Boehringer) and absorbance was measured at 450 nm.
(§3) One row of wells contained media only and these absorbance values were averaged as background and then subtracted from absorbance values from each individual well containing cells. The average values were then determined for each triplicate and plotted vs ligand concentration. The average vehicle (1% ethanol) value was determined, less the background average. […] Potency (EC50) was determined as the concentration of compound that elicited half-maximal response.

Data set [2] deals with Normal human epidermal keratinocytes (NHEK). Kind of data set: Keratinocyte growth inhibition (BrdU). The format is cell-based. The note with it: 96 h, BrdU incorporation, day 4. How it is done:
as §2, §3
Keratinocyte growth inhibition. Normal human epidermal keratinocytes (NHEK) were grown according to vendor specifications (Clonetics, San Diego). BrdU assays were performed as above except that cells were plated at 200 cells per well (96-well plates) and fresh media with ligands were added on day 0 and day 2; BrdU assays were run on day 4.

Data set [3] in a line: In vivo calcium potential: serum calcium (colorimetric). More on the design: species or system mouse (Balb/c mice). The note with it: oral gavage. How it is done: (§4) In vivo gene regulation and calcium potential. Balb/c mice (male 6-8 weeks old, ~20 g) were fed a vitamin D deficient, calcium replete diet (Purina Mills) for 7-14 days prior to receiving treatment with compounds. Animals were housed under normal lighting. Compounds were administered in sesame oil vehicle with 4% ethanol by oral gavage (0.1 mL dose volume). […] On the final day of dosing, 4-6 h after the final dose, animals were euthanized, the kidneys removed and blood collected. Serum was prepared from the blood and calcium determination performed by colorimetric assay (Sigma). […] 15-20 μg total RNA was utilized in Northern blot analysis using rat 24(OH)ase probe; GAPDH probe was used to normalize for RNA loading, as described previously (Id). Quantitation was by PhosphorImager analysis.

In data set [4] the test system is SK-BR-3 breast cancer cells. Description: Breast cancer cell growth inhibition (BrdU). Particulars: Homo sapiens, SK-BR-3, 72 h, BrdU incorporation, 3-day assay. The format is cell-based. How it is done: as §1, §2, §3
For orientation: Incorporation of labelled thymidine or its analogues reports DNA synthesis.

In the next data set the test system is HL60 cells. Kind of data set: Leukemic cell differentiation (NBT and CD14). The format is cell-based. Particulars: Homo sapiens, HL-60, 120 h; NBT and CD14 assays; differentiation into macrophages/monocytes; 5 days. How it is done:
Leukemic cell differentiation. […] Ligands were added in ethanol vehicle (1%) at various concentrations for 5 days without changing the media. On the fifth day, cells were harvested and assayed for markers of differentiation. […] Cells that bioreduce the dye turn blue-black and represent differentiated cells, and are counted. Undifferentiated cells are clear and are also counted; percent differentiated cells are then determined from the two numbers.

The test system of a further data set is 24(OH)ase. Kind of data set: In vivo gene regulation: kidney 24(OH)ase RNA induction (Northern blot). The note with it: 3-day treatment; for Relative 24(OH)ase activity: oral gavage, vehicle 1, corrected with GAPDH. More on the design: species or system mouse (Balb/c mice). How it is done: as §4
Another data set has as its target serum DBP. Kind of data set: Serum DBP binding, rat or human serum, species not given. The note with it: rat (r) or human (h) serum DBP, not marked (r)/(h); competition with [3H]-25(OH)D3. How it is done: Serum DBP-binding. DPB competition binding assays were performed by a literature method (Dusso et al. 1991). The source of DBP was either human serum (Scantibodies) or rat serum (Gibco-BRL) diluted 1:10,000 in sodium phosphate buffer (pH 7.4). Sera were incubated for 2 h at 4° C. with 2 nM [^3 H]-25(OH)D3 (Amersham) with and withoun unlabeled 25(OH)D3 or 1,25(OH)2D3 (0.01 nM-1 μM), or unlabeled vitamin D mimic compounds (10 nM-10 μM). Bound ligand was separated from unbound ligand with Dextran-coated charcoal in gelatin-phosphate buffer.

Data set [5] deals with T1, human VDR (Homo sapiens, UniProt P11473).
T1 sequence (P11473 1-427): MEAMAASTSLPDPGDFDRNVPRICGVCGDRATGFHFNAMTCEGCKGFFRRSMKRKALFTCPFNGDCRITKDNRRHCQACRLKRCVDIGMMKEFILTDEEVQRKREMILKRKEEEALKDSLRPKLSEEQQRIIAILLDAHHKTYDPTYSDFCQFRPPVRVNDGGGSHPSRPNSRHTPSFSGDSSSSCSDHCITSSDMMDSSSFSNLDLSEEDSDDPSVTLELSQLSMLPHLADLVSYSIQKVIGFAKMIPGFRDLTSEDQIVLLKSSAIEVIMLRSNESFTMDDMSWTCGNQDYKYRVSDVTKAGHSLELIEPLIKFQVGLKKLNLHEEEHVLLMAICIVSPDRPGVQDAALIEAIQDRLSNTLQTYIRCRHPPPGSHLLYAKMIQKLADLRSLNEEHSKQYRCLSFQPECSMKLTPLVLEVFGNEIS
Description: Cotransactivation (CTF) in Hep G2 cells, VDRE-luciferase reporter. Type of data set: cell-based. More on the design: expressed in transfected cells; host or cells: Hep G2 (human hepatoma, ATCC). How it is done:
Cotransactivation properties. […] Reporter and receptor containing vectors were transfected along with carrier DNA and β-galactosidase internal control plasmid as previously described except that Hep G2 cells were used (Id). Briefly, transfections were performed in triplicate in 96-well gelatin-coated plates with a total of 20 μg/mL DNA (0.5 μg receptor expression vector, 5 μg reported plasmid, 5 μg β-galactosidase plasmid, and pGEM carrier DNA to 20 μg) of calcium phosphate-HEPES transfection solution. […] Luciferase values were normalized with β-galactosidase values to control for variable transfection efficiencies.
In general terms: A reporter such as luciferase makes a cellular process visible.

Data set [6] concerns the target T1, human VDR. Kind of data set: biochemical.
Description: VDR binding. […] Cell extracts from yeast transformants were prepared and full length VDR expression was confirmed by Western blotting. […] Binding buffer contained 10 mM Tris,pH 7.5, 1 mM DTT, and 0.4 M KCl; wash buffer contained 10 mM Tris, 100 mM KCl, and 10 mM CHAPS detergent.
[7] abbreviates: cotransfected VDRE-luciferase reporter and human VDR in Hep G2 cells, read-out: CTF EC50.

A word on the EC50: it is the concentration giving half of the maximal effect. `C=C1/C(=C\C=C2/CCC[C@]3(C)[C@@H]([C@H](C)CCCC(C)(C)O)CC[C@@H]23)C[C@@H](O)C[C@@H]1O` [1,25(OH)2 D3, 1,25-dihydroxyvitamin D3, reference compound]: the EC50 was 2 nM in data set [1], 10 to 30 nM in data set [2], 8 to 10 nM in [4] and 8 to 10 nM with HL60 cells. Besides, the “Serum Ca2+” value in data set [3] (3-day treatment, 15 μg/kg, statistically different than vehicle (p < 0.01)) was > 15 mg/dL; in [3] (5-day treatment, 2 μg/kg) it was 9.7 ± 0.6 mg/dL; in data set [3] (5-day treatment, 5 μg/kg, statistically different than vehicle (p < 0.01)) it was 10.5 ± 0.6 mg/dL.
By IC50 is commonly meant the concentration at which inhibition is half-maximal. The low end stands for greater potency in that assay, the high end for weaker potency in that assay. For orientation: Ki means a measure of affinity in units of concentration, obtained from inhibition or displacement. Read a high Ki as weaker binding. In the case of `CCC(CC)(c1ccc(OCC(=O)C(C)(C)C)c(C)c1)c1ccc(OCC(=O)C(C)(C)C)c(C)c1` [Compound 7, 3,3-bis[3-methyl-4-(3,3-dimethyl-2-oxobutoxy)phenyl]pentane], the concentration for a half-maximal effect (EC50) in [1] turned out to be 300 nM; in data set [2] it was 500 nM; at human VDR [5] (setting [7]) it was 600 nM; in data set [4] it was 800 nM; in the data set with HL60 cells, 800 nM. In addition, the entries for the “Ratio 24(OH)ase/Ca2+” value in the data set with 24(OH)ase (100 μg/kg) and in the data set on 24(OH)ase (500 μg/kg) were 0.63 and 0.52, respectively. Also, the “Ratio 24(OH)ase/Ca2+ increase” value with 24(OH)ase (100 μg/kg) was determined as 5.17; in the data set with 24(OH)ase (500 μg/kg) it was 1.88. The “Relative 24(OH)ase activity” value with 24(OH)ase (100 μg/kg) and with 24(OH)ase (500 μg/kg) was 6.0 throughout. Moreover, on serum DBP, the IC50 was > 10000 nM. For the same molecule, the “Serum Ca2+” value in data set [3] (3-day treatment, 100 μg/kg) was found to be 9.6 ± 0.5 mg/dL; in data set [3] (3-day treatment, 500 μg/kg, statistically different than vehicle (p < 0.01)), 11.5 ± 0.9 mg/dL. Moreover, at human VDR [6], the Ki was > 10000 nM.
For `CCC(CC)(c1ccc(OCC(=O)C(C)(C)C)c(C)c1)c1ccc(OCC2CO2)c(C)c1` (stereo not shown) [Compound 9, 3-[3-methyl-4-(2,3-epoxypropoxy)phenyl]-3-[3-methyl-4-(3,3-dimethyl-2-oxobutoxy)phenyl]pentane], the EC50 in data set [1] worked out at 100 nM; in [2] it was 200 nM; at human VDR [5] (setting [7]), 60 nM; in [4], 150 nM; in the data set on HL60 cells, 150 nM. The IC50 on serum DBP was > 10000 nM. On human VDR [6], the Ki is > 10000 nM.
Turning to `CCC(CC)(c1ccc(OCC(=O)C(C)(C)C)c(C)c1)c1ccc(OCC(O)C(C)(C)C)c(C)c1` (stereo not shown) [Compound 11, 3-[3-methyl-4-(2-hydroxy-3,3-dimethylbutoxy)phenyl]-3-[3-methyl-4-(3,3-dimethyl-2-oxobutoxy)phenyl]pentane], the EC50 stood at 500 nM in [1], 400 nM at human VDR [5], 500 nM in [4] and 400 nM in the data set on HL60 cells. Further, at serum DBP, the IC50 was > 10000 nM. Moreover, the Ki on human VDR [6] is > 10000 nM.
As to `CCC(CC)(c1ccc(OCC(O)CO)c(C)c1)c1ccc(OCC(O)C(C)(C)C)c(C)c1` (stereo not shown) [Compound 13, 3-[3-methyl-4-(2,3-dihydroxypropoxy)phenyl]-3-[3-methyl-4-(2-hydroxy-3,3-dimethylbutoxy)phenyl]pentane], the EC50 is 20 nM in data set [1], 30 to 50 nM in data set [2], 30 to 50 nM in data set [4] and 30 to 50 nM in the data set with HL60 cells. Moreover, on serum DBP, the IC50 was > 10000 nM.
